Key:
Conditions in all cases: 72 h
HL-60 [1] = assay: cell viability (% survival relative to DMSO control); higher = less cytotoxic
Summary of the method: (§1)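 HL-60 cells in RPMI 1640 with 10% FBS were rescreened against the full library on 384-well plates at five tenfold concentrations, 1–10,000 nM, in duplicate. Each screen was run with DMSO or 100 nM of one of three metabolic inhibitors, for 72 h at 37 °C, 5% CO2. Viability was read by CellTiter-Glo and normalised to DMSO and 10 μM proteasome-inhibitor wells. Where given, area under the curve came from four-parameter log-logistic fits (drc, PharmacoGx).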

HL-60 [2] = assay: area under dose-response curve (viability, 1 nM-10 uM) (fraction (0-1)); higher = more sensitive
Summary of the method: as §1

BV-173 [3] = system: BV-173
Summary of the method: (§2)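 Fifteen myeloid leukaemia lines in RPMI 1640 were treated for 72 h at 37 °C and 5% CO2 with five tenfold doses from 1 to 10,000 nM, in duplicate. ATP luminescence was normalised to vehicle and to a positive control at 10 µM, then fitted with a four-parameter log-logistic model. The IC50 came from these fits.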

HL-60 [4] = system: HL-60
Summary of the method: as §2

K-562 [5] = system: K-562
Summary of the method: as §2

KU-812 [6] = system: KU-812
Summary of the method: as §2

LAMA-84 [7] = system: LAMA-84
Summary of the method: as §2

MOLM-13 [8] = system: MOLM-13
Summary of the method: as §2

MV4-11 [9] = system: MV4-11
Summary of the method: as §2

Mono-Mac-6 [10] = system: Mono-Mac-6
Summary of the method: as §2

NOMO-1 [11] = system: NOMO-1
Summary of the method: as §2

SHI-1 [12] = system: SHI-1
Summary of the method: as §2

THP-1 [13] = system: THP-1
Summary of the method: as §2

BV-173 [14] = assay: cell viability (% survival relative to DMSO control, bortezomib = 0%); higher = less cytotoxic
Summary of the method: (§3)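 Fifteen myeloid leukaemia cell lines (10 AML, 5 CML) were seeded at a density titrated to the linear growth range into 384-well plates pre-printed with compounds at 1, 10, 100, 1000 or 10000 nM in duplicate. Plates were incubated for 72 h at 37 °C with 5% CO2. Viability was then read by CellTiter-Glo luminescence. Each value is percent survival averaged over the duplicates, with vehicle set to 100% and a 10 µM positive control to 0%.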

HL-60 [15] = assay: as above
Summary of the method: as §3

K-562 [16] = assay: as above
Summary of the method: as §3

KU-812 [17] = assay: as above
Summary of the method: as §3

LAMA-84 [18] = assay: as above
Summary of the method: as §3

MOLM-13 [19] = assay: as above
Summary of the method: as §3

MV4-11 [20] = assay: as above
Summary of the method: as §3

Mono-Mac-6 [21] = assay: as above
Summary of the method: as §3

NOMO-1 [22] = assay: as above
Summary of the method: as §3

SHI-1 [23] = assay: as above
Summary of the method: as §3

THP-1 [24] = assay: as above
Summary of the method: as §3

HEL [25] = system: HEL
Summary of the method: as §2

KCL-22 [26] = system: KCL-22
Summary of the method: as §2

KG-1 [27] = system: KG-1
Summary of the method: as §2

ML-2 [28] = system: ML-2
Summary of the method: as §2

HEL [29] = assay: cell viability (% survival relative to DMSO control, bortezomib = 0%); higher = less cytotoxic
Summary of the method: as §3

KCL-22 [30] = assay: as above
Summary of the method: as §3

KG-1 [31] = assay: as above
Summary of the method: as §3

ML-2 [32] = assay: as above
Summary of the method: as §3

N#Cc1ccnc(N2C(=O)CC[C@H]2C(=O)N(c2cncc(F)c2)[C@H](C(=O)NC2CC(F)(F)C2)c2ccccc2Cl)c1 [AG-120]
cell viability [%], HL-60 [1]
Conditions	0.001 µM	0.01 µM	0.1 µM	1 µM	10 µM
co-treatment: AZD3965 100 nM	102	86.8	113	91	102
co-treatment: DMSO vehicle	104	98.74	99.6	97.6	99.14
co-treatment: GSK2194069 100 nM	93.1	101	99.8	92.3	88.3
co-treatment: pictilisib 100 nM	92.9	98.2	104	77.1	98.6

HL-60 [2]
Conditions	area under dose-response curve
co-treatment: AZD3965 100 nM	< 0.0301
co-treatment: DMSO vehicle	< 0.0301
co-treatment: GSK2194069 100 nM	< 0.0301
co-treatment: pictilisib 100 nM	< 0.0301

O=C(Nc1ccccc1)c1cc([N+](=O)[O-])ccc1Cl [GW9662]
Conditions	IC50 (cell viability) [µM]
BV-173 [3]	8.53
HL-60 [4]	> 10
K-562 [5]	> 10
KU-812 [6]	> 10
LAMA-84 [7]	> 10
MOLM-13 [8]	> 10
MV4-11 [9]	8.81
Mono-Mac-6 [10]	> 10
NOMO-1 [11]	> 10
SHI-1 [12]	> 10
THP-1 [13]	> 10

cell viability [%]
Conditions	1 nM	10 nM	100 nM	1000 nM	10000 nM
BV-173 [14]	103	95.7	113	91.8	56.6
HL-60 [15]	90.2	98.8	98.2	106	72.6
K-562 [16]	112	102	105	108	65.4
KU-812 [17]	97.9	102	113	87.3	71.7
LAMA-84 [18]	98.7	95.9	110	101	90.5
MOLM-13 [19]	109	97	95.5	122	80.8
MV4-11 [20]	102	93.3	108	115	42.9
Mono-Mac-6 [21]	101	107	110	112	115
NOMO-1 [22]	95.6	96.4	97.3	102	91.8
SHI-1 [23]	111	104	103	107	93.8
THP-1 [24]	103	101	102	93.7	77.2

CC/C=C\C[C@H]1C(=O)CC[C@@H]1CC(=O)OC [Methyl jasmonate]
Conditions	IC50 (cell viability) [µM]
BV-173 [3]	> 10
HEL [25]	> 10
HL-60 [4]	> 10
K-562 [5]	> 10
KCL-22 [26]	> 10
KG-1 [27]	> 10
KU-812 [6]	> 10
LAMA-84 [7]	> 10
ML-2 [28]	> 10
MOLM-13 [8]	> 10
MV4-11 [9]	> 10
Mono-Mac-6 [10]	> 10
NOMO-1 [11]	> 10
SHI-1 [12]	> 10
THP-1 [13]	> 10

cell viability [%]
Conditions	1 nM	10 nM	100 nM	1000 nM	10000 nM
BV-173 [14]	108	111	103	93.2	103
HEL [29]	97.3	99.1	114	99.5	111
HL-60 [15]	92.7	99.1	105	96.5	111
K-562 [16]	90.2	95.9	104	102	91.5
KCL-22 [30]	109	99.9	96.9	91.9	103
KG-1 [31]	115	95.7	93.9	101	105
KU-812 [17]	99.3	108	110	99.1	104
LAMA-84 [18]	95.6	100	105	98.7	110
ML-2 [32]	115	110	101	99.9	108
MOLM-13 [19]	108	113	116	94.3	96.6
MV4-11 [20]	106	104	108	105	101
Mono-Mac-6 [21]	102	101	111	96.2	107
NOMO-1 [22]	104	110	101	93	100
SHI-1 [23]	98.8	94.2	90.8	99.3	98
THP-1 [24]	103	111	101	95.3	106
